The values that follow come from US7557134B2, “N-(heteroaryl)-1H-indole-2-carboxamide derivatives and their use as vanilloid TRPV1 receptor ligands” (Sanofi-Aventis, priority 2005, dated 2009).

One experiment deals with T1, TRPV1 receptor (Rattus norvegicus, UniProt O35433).
T1 construct: The neurons of the DRG naturally express the TRPV1 receptor; endogenous in cells; host or cells: primary culture of newborn rat dorsal root ganglion neurons
Nature of the experiment: Test of inhibition of the current induced with capsaicin on rat DRGs (whole-cell patch-clamp). The conditions noted are these: capsaicin response 300 nM, rat DRG neurons. Format: cell-based. Here is the method: Test of Inhibition of the Current Induced with Capsaicin on rat DRGs
• Primary culture of rat dorsal root ganglion (DRG) cells:
The neurons of the DRG naturally express the TRPV1 receptor.
The primary cultures of newborn rat DRGs are prepared using 1-day-old rats. Briefly, after dissection, the ganglions are trypsinized and the cells dissociated by mechanical trituration. The cells are resuspended in an Eagle basal culture medium containing 10% fetal calf serum, 25 mM KCl, 2 mM glutamine, 100 μg/ml gentamicin and 50 ng/ml of NGF, and then deposited on glass slides coated with laminin (0.25×10^6 cells per slide), which are then placed in Corning 12-well dishes. The cells are incubated at 37° C. in a humidified atmosphere containing 5% CO2 and 95% air. Cytosine β-D-arabinoside (1 μM) is added 48 hours after culturing, to prevent the growth of non-neuronal cells. The slides are transferred into experimental chambers for the patch-clamp studies after 7-10 days of culturing.
The measuring chambers (volume 800 μl) containing the cell preparation are placed on the platform of an inverted microscope (Olympus IMT2) equipped with Hoffman optics (Modulation Contrast, New York) and observed at a magnification of 400×. The chambers are continuously gravity-influxed (2.5 ml/min) using a solution distributor accepting 8 inlets and whose sole outlet, consisting of a polyethylene tube (aperture 500 μm), is placed less than 3 mm from the cell under study. The “whole cell” configuration of the patch-clamp technique was used. […] The overall currents (membrane potential set at […]) are recorded with an Axopatch 1 D amplifier (Axon Instruments, Foster city, Calif.), connected to a PC running the Pclamp8 software (Axon Instrument). The current plots are recorded on paper and simultaneously digitized (sampling frequency 15 to 25 Hz) and acquired on the hard drive of the PC.
The application of a 300 nM capsaicin solution induces on the DRG cells (voltage set at −70 mV) an entering cationic current. […] The results are expressed as a percentage of inhibition of the control capsaicin response.

The target in the next experiment is T2, TRPV1 receptors (Mus musculus, UniProt Q704Y3).
T2 construct: from tissue; host or cells: living mouse, cornea (capsaicin ocular instillation)
Description: Test of mouse corneal irritation (capsaicin ocular instillation). Format: in vivo. Particulars: 1 mg/kg po, pretreatment time t = 1 h, n = 8, 2 μl of 160 μM capsaicin. How it is done: Test of Mouse Corneal Irritation
The irritant nature of capsaicin is readily assessed on the cornea since this organ is one of the organs most densely innervated with C fibres. In this context, from preliminary experiments, the application of a very small amount of capsaicin (2 μl at a concentration of 160 μM) to the surface of the cornea of an animal leads to a certain number of stereotypic behavioral traits associated with irritation, which are easy to detect. Among these, the following are noted: blinking of the eye, rubbing of the instilled eye with the ipsilateral front paw, rubbing of the face with both front paws, scratching of the ipsilateral face with the hind paw. […] This aspect is moreover also normal. […]
In practice, the test product is administered orally and, with a delay (pretreatment time: t) that depends on the pharmacokinetic data, the animal receives an ocular instillation of 2 μl of a 160 μM capsaicin solution prepared as indicated above. During a 2-minute observation following the instillation, the number of times the instilled eye is rubbed with the ipsilateral front paw is recorded.
For a given animal, the percentage of protection is calculated as follows: P=100−((number of scratching actions observed/mean number of scratching actions for the group treated with the solvent)×100) […]

T2 sequence (Q704Y3 whole entry): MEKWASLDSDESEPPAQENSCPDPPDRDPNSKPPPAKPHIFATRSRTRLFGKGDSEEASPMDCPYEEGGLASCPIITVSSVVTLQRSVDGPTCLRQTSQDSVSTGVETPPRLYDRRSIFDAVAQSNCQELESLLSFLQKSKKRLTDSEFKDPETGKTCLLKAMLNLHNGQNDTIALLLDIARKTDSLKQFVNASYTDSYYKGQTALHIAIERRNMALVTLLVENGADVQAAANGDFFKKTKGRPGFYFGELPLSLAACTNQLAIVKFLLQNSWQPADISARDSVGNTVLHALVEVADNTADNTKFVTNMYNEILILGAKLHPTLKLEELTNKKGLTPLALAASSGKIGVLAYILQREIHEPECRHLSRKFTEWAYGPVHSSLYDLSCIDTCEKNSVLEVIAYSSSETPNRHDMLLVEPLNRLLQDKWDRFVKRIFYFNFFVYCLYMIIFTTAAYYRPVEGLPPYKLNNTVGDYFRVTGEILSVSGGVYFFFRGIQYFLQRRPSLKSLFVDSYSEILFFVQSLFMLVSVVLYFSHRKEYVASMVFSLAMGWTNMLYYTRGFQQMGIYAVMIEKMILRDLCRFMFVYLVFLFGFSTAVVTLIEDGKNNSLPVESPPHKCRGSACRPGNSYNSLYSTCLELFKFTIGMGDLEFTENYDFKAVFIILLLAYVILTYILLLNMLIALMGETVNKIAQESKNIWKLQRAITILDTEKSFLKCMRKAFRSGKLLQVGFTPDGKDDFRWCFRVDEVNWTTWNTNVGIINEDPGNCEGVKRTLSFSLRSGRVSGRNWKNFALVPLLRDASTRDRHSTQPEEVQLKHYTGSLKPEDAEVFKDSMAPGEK
T1 sequence (O35433 whole entry): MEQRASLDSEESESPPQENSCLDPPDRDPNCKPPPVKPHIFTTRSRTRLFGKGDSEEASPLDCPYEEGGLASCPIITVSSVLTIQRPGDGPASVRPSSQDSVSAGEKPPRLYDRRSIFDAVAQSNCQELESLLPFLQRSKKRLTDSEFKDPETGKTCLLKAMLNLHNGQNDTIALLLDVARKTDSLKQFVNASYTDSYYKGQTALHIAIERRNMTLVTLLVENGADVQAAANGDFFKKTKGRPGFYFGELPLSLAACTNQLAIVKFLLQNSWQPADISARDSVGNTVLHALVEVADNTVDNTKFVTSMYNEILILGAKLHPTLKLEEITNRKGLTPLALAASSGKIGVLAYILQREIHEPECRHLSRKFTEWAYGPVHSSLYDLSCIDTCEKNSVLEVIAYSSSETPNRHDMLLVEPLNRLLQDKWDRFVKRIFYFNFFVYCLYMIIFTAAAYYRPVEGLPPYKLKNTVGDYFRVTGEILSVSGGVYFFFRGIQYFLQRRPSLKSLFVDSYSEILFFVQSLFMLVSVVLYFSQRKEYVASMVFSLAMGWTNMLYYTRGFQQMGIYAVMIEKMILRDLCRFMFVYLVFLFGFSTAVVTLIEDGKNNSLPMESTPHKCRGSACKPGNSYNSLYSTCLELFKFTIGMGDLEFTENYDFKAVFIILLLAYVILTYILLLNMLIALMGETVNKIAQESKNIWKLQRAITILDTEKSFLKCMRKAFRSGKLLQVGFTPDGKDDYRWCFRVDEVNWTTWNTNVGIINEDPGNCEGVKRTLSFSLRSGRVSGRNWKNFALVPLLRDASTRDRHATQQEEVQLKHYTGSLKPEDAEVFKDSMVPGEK

As for `O=C(Nc1ccc2c(c1)NCCC2)c1cc2cc(F)ccc2n1Cc1cccc(F)c1` [Compound 14, N-(1,2,3,4-tetrahydroquinol-7-yl)-5-fluoro-1-[(3-fluorophenyl)methyl]-1H-indole-2-carboxamide], 0.01 µM produced 38% inhibition against TRPV1 receptor (DRG neuron, compound 10 nM). For the same compound, the “% P (percentage of protection)” value on TRPV1 receptors is listed as 46% - (1 h).

On to `O=C1CCc2ccc(NC(=O)c3cc4cc(F)ccc4n3Cc3cccc(F)c3)cc2N1` [Compound 20, N-(1H-2-oxo-3,4-dihydroquinol-7-yl)-5-fluoro-1-[(3-fluorophenyl)methyl]-1H-indole-2-carboxamide], for which, at TRPV1 receptor (compound 1 nM), the “% inhibition in DRG patch” value is recorded as 45% (1 nM). Besides, the “% P (percentage of protection)” value on TRPV1 receptors was 26% - (1 h).
